Assay: xn = mol fraction of the nth substance listed
Conditions: 101 kPa, Liquid

ClCCl [dichloromethane] + CCOS(=O)(=O)[O-].CCn1cc[n+](C)c1
mass density [kg/m3]
Conditions	278.15 K	283.15 K	288.15 K	293.15 K	298.15 K	303.15 K	308.15 K
x1 = 0.0375	1252.39	1248.82	1245.38	1241.96	1238.55	1235.13	1231.72
x1 = 0.0731	1254.22	1250.64	1247.19	1243.72	1240.27	1236.81	1233.36
x1 = 0.1117	1255.78	1252.22	1248.72	1245.22	1241.73	1238.24	1234.76
x1 = 0.1664	1258.85	1255.31	1251.75	1248.14	1244.63	1241.08	1237.55
x1 = 0.2488	1263.74	1260.06	1256.38	1252.7	1249.03	1245.37	1241.71
x1 = 0.3308	1268.9	1265.09	1261.28	1257.48	1253.69	1249.9	1246.13
x1 = 0.4023	1274.69	1270.74	1266.78	1262.82	1258.9	1254.97	1251.05
x1 = 0.4624	1279.33	1275.26	1271.18	1267.11	1263.05	1259	1254.96
x1 = 0.5776	1290.69	1286.28	1281.87	1277.47	1273.07	1268.69	1264.32
x1 = 0.6593	1299.95	1295.23	1290.51	1285.8	1281.09	1276.39	1271.69
x1 = 0.7684	1315.91	1310.52	1305.14	1299.77	1294.38	1289	1283.61
x1 = 0.8377	1327.28	1321.28	1315.26	1309.25	1303.21	1297.16	1291.11
x1 = 0.8856	1335.58	1328.97	1322.35	1315.72	1309.05	1302.36	1295.65
x1 = 0.9207	1341.3	1334.16	1326.99	1319.81	1312.58	1305.32	1298.03
x1 = 0.9475	1345.71	1338.05	1330.35	1322.64	1314.87	1307.06	1299.21
x1 = 0.9687	1349.06	1340.91	1332.71	1324.48	1316.18	1307.85	1299.46
x1 = 0.9858	1351.32	1342.72	1334.07	1325.38	1316.61	1307.8	1298.92
x1 = 1	1352.84	1343.8	1334.71	1325.58	1316.34	1307.06	1297.69

CCO [ethanol] + CCOS(=O)(=O)[O-].CCn1cc[n+](C)c1
x1 = 1
Conditions	mass density [kg/m3]
278.15 K	802.12
283.15 K	797.89
288.15 K	793.63
293.15 K	789.37
298.15 K	785.08
303.15 K	780.77
308.15 K	776.42

CO [methanol] + CCOS(=O)(=O)[O-].CCn1cc[n+](C)c1
x1 = 1
Conditions	mass density [kg/m3]
278.15 K	805.53
283.15 K	800.85
288.15 K	796.16
293.15 K	791.49
298.15 K	786.77
303.15 K	782.05
308.15 K	777.3

O [water] + CCOS(=O)(=O)[O-].CCn1cc[n+](C)c1
x1 = 1
Conditions	mass density [kg/m3]
278.15 K	999.96
283.15 K	999.69

From the NIST ThermoML archive (doi:10.1021/je1002237)
